# Literature values as cited in patent US12121514B2, “Nonselective metabotropic glutamate receptor activators for treatment of attention deficit disorder and 22Q syndrome” (THE CHILDREN'S HOSPITAL OF PHILADELPHIA, priority 2015, dated 2024).
# What was measured:
# pediatric ADHD subjects = conditions: cited from earlier work
# [1] = test system: group I and group II/III mGluRs; conditions: in vitro studies; cited from earlier work
# [2] = test system: adenylate cyclase activity through group I, II and III mGluRs; conditions: cited from earlier work
SMILES,ADHD symptoms compared to a placebo control (pediatric ADHD subjects),stimulation of mGluRs [1],adenylate cyclase activity through group I mGluRs [2],adenylate cyclase activity through group II and III mGluRs [2]
NC(=O)CN1CCCC1=O [piracetam],increase ADHD symptoms,,,
"O=C1CC[C@H](C(=O)N2CCCCC2)N1 [Fasoracetam, fasoracetam]",,can stimulate both group I and group II/III mGluRs,may stimulate adenylate cyclase activity,may also inhibit adenylate cyclase activity
